Experimental findings from patent publication US3950427A, “Araliphatic ketones and carbinols” (Boehringer Ingelheim GmbH, priority 1973, dated 1976) are described below.

The structures appear in SMILES notation. Where two headings read alike, the source gives them in different places.

Holding throughout (assay type): in vivo, rat (male FW 49)
For assay [1], the system named is Kaolin edema and carrageenin edema of the hind paw of the rat. Put plainly: Average value of kaolin edema and carrageenin edema. As to conditions: per os, Table I; for ED35: Rattus norvegicus. The method, then: (§1) The compunds were tested for their anti-exudative effect on Kaolin-induced edema and carrageenin-induced edema in the hind paw of the rat after oral administration to the rat.
(§2) The kaolin edema was induced according to the method given by Hillebrecht [Arzneimittel-Forsch. 4, 607 (1954)] by subplanar injection of 0.05 ml of a 10% suspension of kaolin in a 0.85% sodium chloride solution. Measurement of the thickness of the paws was effected using the technique of Doepfner and Cerletti [Int. Arch. Allergy Immunol. 12, 89 (1958)].
(§3) The test compound was administered orally to male FW 49 rats weighing 120-150 gm by means of an esophageal tube 30 minutes before inducing the edema. 5 hours after inducing the edema the average size of the swelling in the rats treated with the test compound was compared with the size of the swelling in blind-treated control animals. By graphic extrapolation the dose leading to a 35% of the swelling (ED35) was calculated from the percentage reduction in the size of the swelling caused by the administration of different doses.
(§4) The carrageenin edema was induced according to the method of Winder et al. [Proc. Soc. exp. Biol. Med. 111, 544 (1962)] by subplanar injection of 0.05 ml of a 1% solution of carrageenin in a 0.85% solution of sodium chloride. The test compound was administered 60 minutes before the provocation of the edema.
(§5) For the calculation of the reductive effect on the edema, the size of the swelling was measured 3 hours after the provocation of the edema. All other details were the same as described above in the case of the kaolin edema.

Assay [2] deals with Carrageenin-induced edema of the hind paw of the rat. Put plainly: Carrageenin-induced edema of the hind paw of the rat (anti-exudative effect). As to conditions: 60 minutes before provocation, swelling 3 hours after; for ED35: Rattus norvegicus, po, 3 h, read-out: Carrageenin edema ED35 per os; for Carrageenin edema ED35 per os: oral. How it is done:
as §1, §3
b. Carrageenin-induced edema of the hind paw of the rat
as §4, §5
(Carrageenan injected into the paw causes an acute inflammation.)

For assay [3], the system named is Kaolin-induced edema of the hind paw of the rat. Briefly: Kaolin-induced edema of the hind paw of the rat (anti-exudative effect). The settings on record: 30 minutes before inducing edema, swelling 5 hours after; for ED35: Rattus norvegicus, po, 5 h, read-out: Kaolin edema ED35 per os; for Kaolin edema ED35 per os: oral. The method, then:
as §1
a. Kaolin-induced edema of the hind paw of the rat
as §2, §3

The next assay deals with Adjuvant arthritis-rat. Briefly: Adjuvant arthritis test on rats (M.butyricum). The settings on record: po, 504 h, 21st day, once daily for 20 days by esophageal tube. The method, then:
The adjuvant arthritis tests on rats were performed in analogy to the procedure described by Rosenthale and Nagra [Proc. Soc. exp. Biol. Med. 125, 149 (1967)].
Male FW 49-rats were given a subplantar injection of 0.1 ml of a 1% suspension of M.butyricum in viscous paraffin oil in a hind paw. The test compound was administered, beginning with the M.butyricum injection, once daily for 20 days by esophageal tube.
On the 21st day after inducing the arthritis, the volumes of the right paw (non-specific primary reaction at the place of injection) and the left paw (immunologically predicated specific secondary reaction) of the animals treated with the test compound were compared with those of the blind-treated control animals. From the swelling reduction obtained with the various doses, an ED50 was graphically determined.

Where [4] appears, read: left paw volume, read-out: Adjuvant arthritis-rat ED50 per os, Secondary reaction.
Where [5] appears, read: right paw volume, read-out: Adjuvant arthritis-rat ED50 per os, Primary reaction.

Take `CC(=O)/C=C(\C)c1ccc([C@@H]2CCCC[C@H]2C)cc1` (relative stereo) [BB, (e,e)-4-[4-(2-methyl-cyclohexyl)-phenyl]-3-pentene-2-one]: the ED35 in assay [1] was 16 mg/kg; in assay [2] (Table I) it was 13 mg/kg; in assay [3] (Table I) it was 19 mg/kg.

For `CC(O)/C=C/c1ccc(-c2ccccc2)c(F)c1` (stereo not shown) [A, (e)-4-(2-fluoro-4-biphenylyl)-3-butene-2-ol], the ED35 in assay [1] amounted to 13.7 mg/kg; in assay [2] (Table I), 12.4 mg/kg; in assay [3] (Table I), 15 mg/kg.

On to `CC(O)CC(C)c1ccc(C2CCCCC2)c(Br)c1` (stereo not shown) [AA, 4-(3-bromo-4-cyclohexyl-phenyl)-2-pentanol], for which the ED35 in assay [1] was 23.2 mg/kg; in assay [2] (Table I) it was 18.5 mg/kg; in assay [3] (Table I), 28 mg/kg.

As to `CC(O)CCc1ccc(-c2ccccc2)c(F)c1` (stereo not shown) [B, 4-(2-fluoro-4-biphenylyl)-2-butanol], the values for the ED35 in assay [1], in assay [2] (Table I) and in assay [3] (Table I) were 14 mg/kg, 12 mg/kg and 16 mg/kg, respectively.

For the compound `CC(O)CCCCCCc1ccc(-c2ccccc2F)cc1` (stereo not shown) [C, 8-(2'-fluoro-4-biphenylyl)-2-octanol], the results for the ED35 in assay [1], in assay [2] (Table I) and in assay [3] (Table I) were 16 mg/kg, 17 mg/kg and 15 mg/kg, respectively.

Regarding `CC(=O)CC(C)c1ccc(C2CCCCC2C)cc1` (stereo not shown) [CC, (e)-4-[4-(2-methyl-cyclohexyl)-phenyl]-2-pentanone], the figures for the ED35 in assay [1], in assay [2] (Table I) and in assay [3] (Table I) were 25 mg/kg, 21 mg/kg and 29 mg/kg, respectively.

With `CC(=O)CCCCc1ccc(-c2ccccc2F)cc1` [D, 6-(2'-fluoro-4-biphenylyl)-2-hexanone], the results for the ED35 in assay [1], in assay [2] (Table I) and in assay [3] (Table I) were 9.75 mg/kg, 10.5 mg/kg and 9 mg/kg, respectively.

Take `CC(=O)/C=C(\C)c1ccc(CC(C)C)c(Cl)c1` [DD, (e)-4-(3-chloro-4-isobutyl-phenyl)-3-pentene-2-one]: the ED35 in assay [1] was 34.5 mg/kg; in assay [2] (Table I), 19 mg/kg; in assay [3] (Table I), 50 mg/kg.

Broadly, the ED50 is the dose at which the effect has come halfway, by size or by number of responders. `CC(=O)CC(C)c1ccc(-c2ccccc2)cc1` (stereo not shown) [E, 4-(4-biphenylyl)-2-pentanone]: the ED35 came out at 18 mg/kg in assay [1]; 15 mg/kg in assay [2] (Table I); 15 mg/kg in assay [2] (Table II); 21 mg/kg in assay [3] (Table I); 21 mg/kg in assay [3] (Table II). Further, the ED50 with Adjuvant arthritis-rat (setting [4]) and in the assay on Adjuvant arthritis-rat (setting [5]) was below 4 mg/kg in each case.

`C/C(=C\C(C)O)c1ccc(CC(C)C)c(Cl)c1` (stereo not shown) [EE, (e)-4-(3-chloro-4-isobutyl-phenyl)-3-pentane-2-ol]: the ED35 in assay [1] turned out to be 53 mg/kg; in assay [2] (Table I), 52 mg/kg; in assay [3] (Table I) it was 54 mg/kg.

For `CC(=O)CCCCCCc1ccc(-c2ccccc2F)cc1` [F, 8-(2'-fluoro-4-biphenylyl)-2-octanone], the ED35 is 12.2 mg/kg in assay [1], 14.5 mg/kg in assay [2] (Table I) and 9.8 mg/kg in assay [3] (Table I).

`C/C(=C\C(C)O)c1ccc(C2CCCCC2)cc1` (stereo not shown) [FF, (e)-4-(4-cyclohexyl-phenyl)-3-pentene-2-ol]: the “Average value ED35” value in assay [1] is reported as 42 mgm/kg. In addition, the “Carrageenin edema ED35 per os” value in assay [2] (Table I) was 35 mgm/kg. Further, in assay [3] (Table I), the “Kaolin edema ED35 per os” value stood at 49 mgm/kg.

On to `CC(=O)/C=C(\C)c1ccc(-c2ccccc2)cc1` [G, (e)-4-(4-biphenylyl)-3-pentene-2-one], for which the ED35 in assay [1] came to 16.1 mg/kg; in assay [2] (Table I), 8.6 mg/kg; in assay [3] (Table I), 23.5 mg/kg.

Regarding `CC(=O)/C=C(\C)c1ccc(-c2ccccc2F)cc1` [H, (e)-4-(2'-fluoro-4-biphenylyl)-3-pentene-2-one], the ED35 stood at 22.9 mg/kg in assay [1]; 8.9 mg/kg in assay [2] (Table I); 11 mg/kg in assay [2] (Table II); 37 mg/kg in assay [3] (Table I); 37 mg/kg in assay [3] (Table II). The ED50 with Adjuvant arthritis-rat (setting [4]) was below 1 mg/kg; in the assay on Adjuvant arthritis-rat (setting [5]) it was below 2 mg/kg.

For the compound `CC(O)CC(C)c1ccc(-c2ccccc2)c(F)c1` (stereo not shown) [I, 4-(2-fluoro-4-biphenylyl)-2-pentanol], the ED35 worked out at 16.8 mg/kg in assay [1], 16.5 mg/kg in assay [2] (Table I) and 17 mg/kg in assay [3] (Table I).

For the compound `C/C(=C\C(C)O)c1ccc(-c2ccccc2F)cc1` (stereo not shown) [K, (e)-4-(2'-fluoro-4-biphenylyl)-3-pentene-2-ol], the ED35 was 15.2 mg/kg in assay [1]; 12.8 mg/kg in assay [2] (Table I); 17 mg/kg in assay [2] (Table II); 17.5 mg/kg in assay [3] (Table I); 17.5 mg/kg in assay [3] (Table II). Further, the 50% effective dose (ED50) in the assay on Adjuvant arthritis-rat (setting [4]) is below 2 mg/kg; in the assay on Adjuvant arthritis-rat (setting [5]), below 1.5 mg/kg.

On to `CC(=O)/C=C(\C)c1ccc(-c2ccccc2)c(Cl)c1` [L, (e)-4-(2-chloro-4-biphenylyl)-3-pentene-2-one], for which the ED35 in assay [1] was found to be 10.6 mg/kg; in assay [2] (Table I), 5.6 mg/kg; in assay [3] (Table I) it was 15.5 mg/kg.

On to `C/C(=C\C(C)O)c1ccc(-c2ccccc2)c(Cl)c1` (stereo not shown) [M, (e)-4-(2-chloro-4-biphenylyl)-3-pentene-2-ol], for which the ED35 came to 24.5 mg/kg in assay [1], 23 mg/kg in assay [2] (Table I) and 26 mg/kg in assay [3] (Table I).

Take `CC(=O)CC(C)c1ccc(-c2ccccc2)c(Cl)c1` (stereo not shown) [N, 4-(2-chloro-4-biphenylyl)-2-pentanone]: the ED35 in assay [1] was found to be 24 mg/kg; in assay [2] (Table I), 16.5 mg/kg; in assay [3] (Table I), 31.5 mg/kg.

With `CC(O)CC(C)c1ccc(-c2ccccc2)c(Cl)c1` (stereo not shown) [O, 4(2-chloro-4-biphenylyl)-2-pentanol], the ED35 in assay [3] (Table I) came to 48 mg/kg.

For the compound `CC(=O)/C=C(\C)c1ccc(C2CCCCC2)c(Cl)c1` [P, (e)-4-(3-chloro-4-cyclohexyl-phenyl)-3-pentene-2-one], the ED35 in assay [1] was found to be 12.8 mg/kg; in assay [2] (Table I) it was 8.6 mg/kg; in assay [2] (Table II), 8.6 mg/kg; in assay [3] (Table I), 17 mg/kg; in assay [3] (Table II), 17 mg/kg. Also, the figures for the ED50 in the assay with Adjuvant arthritis-rat (setting [4]) and in the assay on Adjuvant arthritis-rat (setting [5]) were below 0.6 mg/kg and below 0.7 mg/kg, respectively.

As to `CC(=O)CC(C)c1ccc(C2CCCCC2)c(Cl)c1` (stereo not shown) [Q, 4-(3-chloro-4-cyclohexyl-phenyl)-2-pentanone], the ED35 in assay [1] came out at 3.75 mg/kg; in assay [2] (Table I), 2.5 mg/kg; in assay [2] (Table II), 2.5 mg/kg; in assay [3] (Table I), 5 mg/kg; in assay [3] (Table II), 5 mg/kg. Further, the ED50 is below 0.2 mg/kg in the assay on Adjuvant arthritis-rat (setting [4]) and below 0.4 mg/kg with Adjuvant arthritis-rat (setting [5]).

For the compound `CC(O)CC(C)c1ccc(C2CCCCC2)c(Cl)c1` (stereo not shown) [S, 4-(3-chloro-4-cyclohexyl-phenyl)-2-pentanol], the ED35 worked out at 7.3 mg/kg in assay [1], 7 mg/kg in assay [2] (Table I) and 7.6 mg/kg in assay [3] (Table I).

As for `CC(=O)/C=C(\C)c1ccc(C2CCCCC2)cc1` [T, (e)-4-(4-cyclohexyl-phenyl)-3-pentene-2one], the ED35 was 12.2 mg/kg in assay [1], 12 mg/kg in assay [2] (Table I) and 12.5 mg/kg in assay [3] (Table I).

On to `CC(=O)CC(C)c1ccc(C2CCCCC2)cc1` (stereo not shown) [U, 4-(4-cyclohexyl-phenyl)-2-pentanone], for which the ED35 in assay [3] (Table I) amounted to 15 mg/kg.

Turning to `C/C(=C\C(C)O)c1ccc(C2CCCCC2)cc1` (stereo not shown) [V, (e)-4-(4-cyclohexyl-phenyl)-3-pentene-2-ol], the “Average value ED35” value in assay [1] was 10.45 mgm/kg. For the same compound, the “Carrageenin edema ED35 per os” value in assay [2] (Table I) turned out to be 7.6 mgm/kg. Besides, the “Kaolin edema ED35 per os” value in assay [3] (Table I) stood at 13.3 mgm/kg.

On to `CC(O)CC(C)c1ccc(C2CCCCC2)cc1` (stereo not shown) [W, 4-(4-cyclohexyl-phenyl)-2-pentanol], for which the ED35 in assay [3] (Table I) turned out to be 26 mg/kg.

As to `CC(=O)/C=C(\C)c1ccc(C2CCCCC2)c(Br)c1` [X, (e)-4-(3-bromo-4-cyclohexyl-phenyl)-3-pentene-2-one], the ED35 in assay [1], in assay [2] (Table I) and in assay [3] (Table I) was 22 mg/kg in each case.

As for `CC(=O)CC(C)c1ccc(C2CCCCC2)c(Br)c1` (stereo not shown) [Y, 4-(3-bromo-4-cyclohexyl-phenyl)-2-pentanone], in assay [3] (Table I), the ED35 turned out to be 13 mg/kg.

Regarding `C/C(=C\C(C)O)c1ccc(C2CCCCC2)c(Br)c1` (stereo not shown) [Z, (e)-4-(3-bromo-4-cyclohexyl-phenyl)-3-pentene-2-ol], the ED35 in assay [3] (Table I) amounted to 16 mg/kg.
